Experimental data reported in US10799597B2, “Subcutaneous administration of antibody-drug conjugates for cancer therapy” (Immunomedics, Inc., priority 2017, dated 2020).

Columns and labels:
Calu-3 = experiment: Signaling events (p21Waf1/Cip1, p53) in Calu-3 cells; format: cell-based, human
Text: (§1) SN-38 is known to activate several signaling pathways in cells, leading to apoptosis (e.g., Cusack et al., 2001, Cancer Res 61:3535-40; Liu et al. 2009, Cancer Lett 274:47-53; Lagadec et al., 2008, Br J Cancer 98:335-44). Our initial studies examined the expression of 2 proteins involved in early signaling events (p21^Waf1/Cip1 and p53) and 1 late apoptotic event [cleavage of poly-ADP-ribose polymerase (PARP)] in vitro (not shown).

BxPC-3 = experiment: Signaling events (p21Waf1/Cip1, p53) in BxPC-3 cells; format: cell-based, human
Text: as §1

MDA-MB-468 = experiment: MTS cytotoxicity assay, MDA-MB-468; format: cell-based, human; conditions: Example 5, 96 h
[1] = system: SK-MES-1 human squamous cell lung tumors; experiment: Therapy of SK-MES-1 tumor xenografts in nude mice; conditions: hA20 ADC equal dose; irinotecan at MTD (q2dx5)
[2] = system: COLO 205 colonic adenocarcinoma xenografts
[3] = Tolerability study of IMMU-130 in rabbits; format: in vivo, white New Zealand rabbits; conditions: given as two doses
Procedure: (§2) Experiments were conducted in female athymic nude mice, 4 weeks or older, bearing s.c. LS174T human colon carcinoma xenografts of (˜0.2 cm^3 size), or 2 weeks after lung metastases were generated by i.v. injection of GW-39 human colon carcinoma cells. Untreated controls, including a non-targeting ADC, were included. […] Tolerability studies were conducted in white New Zealand rabbits.

[4] = Drug release from the linker in IMMU-130
[5] = system: GW-39 human colon carcinoma lung metastases; experiment: IMMU-130 therapy of GW-39 lung metastases in nude mice; format: in vivo, athymic nude mice
Procedure: as §2

[6] = system: gastric adenocarcinoma metastases; experiment: I.V. and S.C. IMMU-130 in a gastric cancer patient (Example 15); format: in vivo, human
Text: Their fourth infusion is postponed by one week, and then the weekly infusions are reinstituted, with no evidence of diarrhea or neutropenia for the next 4 injection. The patient then undergoes a CT study to measure their metastatic tumor sizes and to view the original area of gastric resection. The radiologist measures, according to RECIST criteria, a decrease of the sum of the metastatic lesions, compared to baseline prior to IMMU-130 therapy, of 23%. […] The patient's general condition improves and they resume their usual activities while continuing to receive a maintenance therapy of 3 mg/kg administered twice-weekly subcutaneously of IMMU-130 every six weeks for another 4 courses of therapy. At the last measurement of blood CEA, the value is 4.8 ng/mL, which is within the normal range for a smoker, which is the case for this patient.

[7] = system: LS174T human colon carcinoma xenografts; experiment: IMMU-130 therapy of s.c. LS174T xenografts in nude mice; format: in vivo, athymic nude mice; conditions: s.c. model
Procedure: as §2

[8] = system: metastatic colonic cancer; experiment: IMMU-130 in a patient with advanced colon cancer (Example 13); format: in vivo, human
Text: The patient is a person with a history of stage-IV metastatic colonic cancer, first diagnosed in 2008 and given a colectomy and partial hepatectomy for the primary and metastatic colonic cancers, respectively. […] In 2009, they received radiofrequency ablation therapy to their liver metastasis while under chemo-immunotherapy, and in late 2010 they underwent a wedge resection of their lung metastases, which was repeated a few months later, in early 2011. Despite having chemo-immunotherapy in 2011, new lung metastases appeared at the end of 2011, and in 2012, both lung and liver metastases were visualized. Their baseline plasma carcinoembryonic antigen (CEA) titer was 12.5 ng/mL just before undergoing the antibody-drug therapy with IMMU-130. The index lesions chosen by the radiologist for measuring tumor size change by computed tomography were the mid-lobe of the right lung and the liver metastases, both totaling 91 mm as the sum of their longest diameters at the baseline prior to IMMU-130 (anti-CEACAM5-SN-38) therapy.
This patient received doses of 10 mg/kg of IMMU-130 by slow IV infusion every other week for a total of 17 treatment doses. The patient tolerated the therapy well, having only a grade 1 nausea, diarrhea and fatigue after the first treatment, which occurred after treatments 4 and 5, but not therafter, because they received medication for these side-effects. After treatment 3, they did show alopecia (grade 2), which was present during the subsequent therapy. The nausea, diarrhea, and occasional vomiting lasted only 2-3 days, and their fatigue after the first infusion lasted 2 weeks. Otherwise, the patient tolerated the therapy well.

metastatic colon cancer [9] = experiment: S.C. hMN-14-SN-38 ADC in advanced metastatic colon cancer (Example 16); format: in vivo, human; conditions: 2 mg/kg S.C. twice-weekly every other week, 3-month CT evaluation
Procedure: The hMN-14-SN-38 ADC is administered at a dosage of 2 mg/kg S.C., twice-weekly, which is repeated every other week for 4 months.

metastatic colon cancer [10] = experiment: Subcutaneous IMMU-130 in a patient with metastatic colon cancer (Example 11); format: in vivo, human; conditions: s.c. 4 mg/kg 3 times weekly for 2 weeks, 3 cycles; CT 8 weeks from treatment begin
Procedure: A person with metastatic colon cancer (3-5 cm diameters) to their left and right liver lobes, as well as a 5 cm metastasis to their right lung, and an elevated blood CEA value of 130 ng/mL, is treated with the anti-CEACAM-5 ADC IMMU-130 (hMN-14-CL2A-SN-38) administered subcutaneously at a dosage of 4 mg/kg, given 3 times weekly for 2 weeks, followed by rest, with 3 cycles of drug administration. […] Repeated courses of therapy continue as their neutropenia normalizes.

[11] = system: Calu-3 non-small cell lung carcinoma xenografts; experiment: Therapy of Calu-3 tumor xenografts in nude mice; format: in vivo, athymic nude mice; conditions: 0.4 mg/kg SN-38 q4dx4
Procedure: FIG. 4A. […] Mice bearing Calu-3 tumors (N=5-7) were injected with hRS7-CL2-SN-38 every 4 days for a total of 4 injections (q4dx4).

FIG. 3A = experiment: FIG. 3A
Procedure: Table printed on a drawing sheet, FIG. 3A
Footnotes: CL2-SN-38: AA = Phe / CL2A-SN-38: AA = None
The patent's description of the figure: FIG. 3A. Structures of CL2-SN-38 and CL2A-SN-38.
FIG. 3C. […] Capan-1 mice (N=10) were treated with 0.2 mg/kg ADC and tumors measured weekly.

[12] = system: Capan-1 pancreatic adenocarcinoma xenografts; experiment: Therapy of Capan-1 tumor xenografts in nude mice; format: in vivo, athymic nude mice; conditions: 0.2 mg/kg SN-38 twice weekly×4 weeks
Procedure: FIG. 3C. […] Animals were treated twice weekly for 4 weeks as indicated by the arrows. Capan-1 mice (N=10) were treated with 0.2 mg/kg ADC and tumors measured weekly.
FIG. 4C. […] Capan-1 (N=10) were treated twice weekly for 4 weeks with the agents indicated.

[13] = system: diverse metastatic cancers; experiment: Phase I/II clinical trial of IMMU-132 (Example 9): best response and TTP
[14] = Body weight loss in the murine therapy studies; format: in vivo, mice; conditions: all murine studies
[15] = Tolerability in Cynomolgus monkeys; format: in vivo, Cynomolgus monkeys (Macaca fascicularis)
Procedure: FIG. 5C. Tolerability of hRS7-CL2A-SN-38 in Cynomolgus monkeys. […] All animals were bled on day −1, 3, and 6. Four monkeys were bled on day 11 in the 0.96 mg/kg group, 3 in the 1.92 mg/kg group. Changes in neutrophil counts in Cynomolgus monkeys.
FIG. 5D. Tolerability of hRS7-CL2A-SN-38 in Cynomolgus monkeys. […] All animals were bled on day −1, 3, and 6. Four monkeys were bled on day 11 in the 0.96 mg/kg group, 3 in the 1.92 mg/kg group. Changes in platelet counts in Cynomolgus monkeys.

[16] = Pharmacokinetics of MAb vs. ADC (IMMU-130) in mice; format: in vivo
Procedure: as §2

[17] = esophageal cancer, 4 assessable patients

CCc1c2c(nc3ccc(O)cc13)-c1cc3c(c(=O)n1C2)COC(=O)[C@]3(O)CC [SN-38, reference compound]
time of p53 upregulation (Calu-3): 48 h
time of p53 upregulation (BxPC-3): 48 h
IC50 (MDA-MB-468): 1.54 nM

CCc1c2c(nc3ccc(OC(=O)N4CCC(N5CCCCC5)CC4)cc13)-c1cc3c(c(=O)n1C2)COC(=O)[C@]3(O)CC [irinotecan, reference compound]
antitumor effect relative to the specific conjugate [1]: provided the same antitumor effects as the specific hRS7-SN-38 conjugate
effectiveness of the MTD of irinotecan ([2]; 24 mg SN-38/kg, q2dx5): as effective as hRS7-CL2-SN-38

CC(=O)O[C@H]1C(=O)[C@@]2(C)[C@H]([C@H](OC(=O)c3ccccc3)[C@]3(O)C[C@H](OC(=O)[C@H](O)[C@@H](NC(=O)c4ccccc4)c4ccccc4)C(C)=C1C3(C)C)[C@]1(OC(C)=O)CO[C@@H]1C[C@@H]2O [paclitaxel]
IC50 (MDA-MB-468; Homo sapiens, MDA-MB-468): < 0.061 nM

IMMU-130: CEACAM5-targeted ADC, labetuzumab-SN-38, substituted at 7-8 moles/mole of IgG
NOAEL, human equivalent dose [3]: 40 to 60 mg/kg
time for liberating 50% of drug [4]: ~20 h
effect of pre-dosing with labetuzumab on median survival ([5]; pre-dose up to twice the ADC dose, n=10): did not affect median survival
median survival vs. untreated mice ([5]; total 50 mg/kg ADC, 2 cycles of 21 days, twice-weekly×2 weeks and once weekly×2 weeks schedules): doubled median survival
decrease of the sum of the metastatic lesions (RECIST) ([6]; 8 mg/kg I.V. weekly, first CT study): 23%
grade of diarrhea ([6]; after 3 weeks of 8 mg/kg I.V.): 1
grade of neutropenia ([6]; after 3 weeks of 8 mg/kg I.V.): 2
decrease of the sum of all metastatic lesions ([6]; after a total of 13 infusions of 8.0 mg/kg I.V.): 41%
CEA titer ([6]; at first CT study, baseline 14.5 ng/mL): 7.2 ng/mL
blood CEA ([6]; last measurement, s.c. maintenance 3 mg/kg twice-weekly): 4.8 ng/mL
efficacy vs. the conjugate with an ultrastable linker ([7]; n=5): superior
efficacy of combination with bevacizumab ([7]; n=8-10, P<0.031): improved efficacy
efficacy vs. an MTD of 5 FU/leucovorin chemotherapy ([7]; n=10, P<0.0001): better
grade of nausea, diarrhea and fatigue ([8]; 10 mg/kg IV): 1
change in index lesions from baseline (CT) ([8]; 10 mg/kg IV every other week, after 4 treatments): 28.6%
reduction in index lesions from baseline (CT) ([8]; after 8 treatments): 40.6%
anti-labetuzumab antibody in blood ([8]; after 16 doses): none was detected
plasma CEA titer ([8]; after the third therapy dose, baseline 12.6 ng/mL): 2.1 ng/mL
grade of alopecia ([8]; after treatment 3): 2
index lesions less than baseline (CT) ([8]; another 2 months later): 31.9%
response by RECIST criteria (metastatic colon cancer [9]): partial response
reduction of the total mean diameters of the 3 target lesions (metastatic colon cancer [10]): 25%

hLL2-CL2-SN-38 [reference compound]
tumor outcome [11]: tumors regrew

hRS7 IgG
time of p53 upregulation (Calu-3): 48 h
time of p53 upregulation (BxPC-3): 48 h

hRS7-CL2-SN-38 [listing 1 of 2 here]
HUMAN SERUM HALF-LIFE (FIG. 3A): 22.1 h

hRS7-CL2-SN-38 [listing 2 of 2 here]
tumor growth vs. saline and hA20-CL2A-SN-38 ([2]; 0.4 mg/kg SN-38 twice weekly×4 weeks): significantly inhibited tumor growth
time by which all mice were cured [11]: ≤ 28 days
tumor outcome [11]: remained tumor-free until the end of the study on day 147
tumor growth vs. saline and hA20-CL2A-SN-38 [12]: significantly inhibited tumor growth
mice tumor-free at the end of the study ([12]; day 140): 40%

hRS7-CL2A-SN-38
HUMAN SERUM HALF-LIFE (FIG. 3A): 20.3 h

hRS7-SN-38
reduction in target lesions ([13]; CRC patient, 8 mg/kg, first CT assessment): 37%
maximum reduction in target lesions ([13]; CRC patient, after 10 months of treatment): 65%
Best Response: PD, number of patients ([13]; CRC, 18 assessable patients): 6
Best Response: PR, number of patients ([13]; CRC, 18 assessable patients): 1
Best Response: SD, number of patients ([13]; CRC, 18 assessable patients): 11
Best Response: PD, number of patients ([13]; NSCLC, 5 assessable patients): 1
Best Response: PR, number of patients ([13]; NSCLC, 5 assessable patients): 1
Best Response: SD, number of patients ([13]; NSCLC, 5 assessable patients): 3
Best Response: PD, number of patients ([13]; SCLC, 4 assessable patients): 2
Best Response: PR, number of patients ([13]; SCLC, 4 assessable patients): 2
Best Response: SD, number of patients ([13]; SCLC, 4 assessable patients): 0
Best Response: PD, number of patients ([13]; TNBC, 8 assessable patients): 2
Best Response: PR, number of patients ([13]; TNBC, 8 assessable patients): 2
Best Response: SD, number of patients ([13]; TNBC, 8 assessable patients): 4
Best Response: PD, number of patients ([13]; all patients, 48 assessable): 14
Best Response: PR, number of patients ([13]; all patients, 48 assessable): 7
Best Response: SD, number of patients ([13]; all patients, 48 assessable): 27
Best Response: PD, number of patients [13, 17]: 1
Best Response: PR, number of patients [13, 17]: 1
Best Response: SD, number of patients [13, 17]: 2
tolerability in terms of body weight loss [14]: well tolerated
tolerated cumulative human equivalent dose ([15]; cynomolgus monkey, in vivo): 22 mg/m^2
tolerated dose ([15]; mild and reversible toxicity): 0.96 mg/kg/dose
extrapolated human dose ([15]; per dose): ~11 mg/m^2

labetuzumab
half-life longer for MAb vs. ADC [16]: ~25%
